Experimental data published in PubChem BioAssay (NCI).
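1) Cells in 96-well plates. 2) Compound, 48 h, 5 concentrations. 3) Linear interpolation between surrounding doses. 4) Unreached endpoint = highest concentration. At the TGI there is no net growth.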

Experiments:
Experiment in all cases: DTP human tumour cell line panel, 48 h
[1] = system: OVCAR-8 ovarian
[2] = system: SF-539 CNS
[3] = system: A549 NSCLC
[4] = system: SW-620 colon
[5] = system: COLO 205 colon
[6] = system: SK-MEL-28 melanoma
[7] = system: M14 melanoma
[8] = system: KM12 colon
[9] = system: MCF7 breast
[10] = system: ACHN renal
[11] = system: HL-60(TB) leukemia
[12] = system: NCI-H460 lung
[13] = system: U251 CNS
[14] = system: SK-MEL-2 melanoma
[15] = system: RXF 393 renal
[16] = system: RPMI-8226 leukemia
[17] = system: HT29 colon
[18] = system: UO-31 renal
[19] = system: A498 renal
[20] = system: SR leukemia
[21] = system: UACC-62 melanoma
[22] = system: EKVX NSCLC
[23] = system: NCI-H23 lung
[24] = system: SK-OV-3 ovarian
[25] = system: CAKI-1 renal
[26] = system: DU-145 prostate
[27] = system: HCC-2998 colon
[28] = system: OVCAR-4 ovarian
[29] = system: BT-549 breast
[30] = system: MOLT-4 leukemia
[31] = system: SNB-19 CNS
[32] = system: HCT-116 colon
[33] = system: SF-295 CNS
[34] = system: SF-268 CNS
[35] = system: K-562 leukemia
[36] = system: MDA-MB-435
[37] = system: CCRF-CEM leukemia
[38] = system: HS 578T breast
[39] = system: 786-0 renal
[40] = system: OVCAR-3 ovarian
[41] = system: OVCAR-5 ovarian
[42] = system: HCT-15 colon
[43] = system: MALME-3M melanoma
[44] = system: HOP-92 NSCLC
[45] = system: PC-3 prostate
[46] = system: IGROV1 ovarian
[47] = system: SK-MEL-5 melanoma
[48] = system: HOP-62 NSCLC
[49] = system: MDA-N
[50] = system: NCI/ADR-RES ovarian
[51] = system: UACC-257 melanoma
[52] = system: NCI-H226 lung
[53] = system: MDA-MB-231 breast
[54] = system: T-47D breast
[55] = system: SN12C renal
[56] = system: TK-10 renal
[57] = system: SNB-75 CNS
[58] = system: LOX IMVI melanoma
[59] = system: NCI-H522 lung

N#Cc1c2c(c(Nc3ccc(F)cc3)n3c1nc1ccccc13)CCCC2
TGI [1]: > 100 µM
TGI [2]: > 100 µM
TGI [3]: > 100 µM
TGI [4]: > 100 µM
TGI [5]: > 100 µM
TGI [6]: > 100 µM
TGI [7]: > 100 µM
TGI [8]: > 100 µM
TGI [9]: > 100 µM
TGI [10]: > 100 µM
TGI [11]: > 100 µM
TGI [12]: > 100 µM
TGI [13]: > 100 µM
TGI [14]: > 100 µM
TGI [15]: > 86 µM
TGI [16]: > 100 µM
TGI [17]: > 100 µM
TGI [18]: > 100 µM
TGI [19]: > 100 µM
TGI [20]: > 100 µM
TGI [21]: > 100 µM
TGI [22]: > 100 µM
TGI [23]: > 100 µM
TGI [24]: > 100 µM
TGI [25]: > 100 µM
TGI [26]: > 100 µM
TGI [27]: > 100 µM
TGI [28]: > 100 µM
TGI [29]: > 100 µM
TGI [30]: > 100 µM
TGI [31]: > 85.2 µM
TGI [32]: > 100 µM
TGI [33]: > 100 µM
TGI [34]: > 100 µM
TGI [35]: > 100 µM
TGI [36]: > 100 µM
TGI [37]: > 100 µM
TGI [38]: > 100 µM
TGI [39]: > 100 µM
TGI [40]: > 100 µM
TGI [41]: > 100 µM
TGI [42]: > 100 µM
TGI [43]: > 100 µM
TGI [44]: > 100 µM
TGI [45]: > 100 µM
TGI [46]: > 100 µM
TGI [47]: > 100 µM
TGI [48]: > 100 µM
TGI [49]: > 100 µM
TGI [50]: > 100 µM
TGI [51]: > 100 µM
TGI [52]: > 100 µM
TGI [53]: > 100 µM
TGI [54]: > 100 µM
TGI [55]: > 100 µM
TGI [56]: > 100 µM
TGI [57]: > 100 µM
TGI [58]: > 100 µM
TGI [59]: > 100 µM
